Laboratory results taken from article PMC8952364, “Polyphenols as Inhibitors of Antibiotic Resistant Bacteria—Mechanisms Underlying Rutin Interference with Bacterial Virulence” (Pharmaceuticals, 2022).
≈ marks a conversion by molar mass, not a printed value. Where two headings read alike, the source gives them in different places.

Columns and labels:
P. aeruginosa MTCC 2488 = test system: P. aeruginosa MTCC 2488; parameters: method as in PMID 32057619; conditions: cited from earlier work
S. infantis 1371/1 = assay: Antimicrobial microdilution assay (MIC/MBC); assay type: cell-based, Salmonella Infantis; conditions: Salmonella enterica, 1371/1; for MIC: 37 °C, 24 h, read-out: MIC; for MBC: subcultivation, 24 h at 37 °C, read-out: MBC
Protocol: (§1) The bacterial suspension (0.5 Mc Farland) was prepared, and twenty-fold dilutions of these suspensions were mixed in a 1:10 ratio with the corresponding polyphenol dilution (0.0039–1 mg/mL). Microtiter plates were incubated at 37 °C for 24 h. The lowest concentrations without visible growth (under a binocular microscope) were defined as MICs. The bactericidal concentrations (MBCs) were determined by serial subcultivation of 2 μL of the well’s content and further incubation for 24 h at 37 °C. Streptomycin (SigmaAldrich, Darmstadt, Germany) was used as a positive control. The polyphenols were obtained from Extrasynthese, Rhone, France (rutin, isoquercitrin) and SigmaAldrich, Germany (hesperetin, hesperidin, naringenin, naringin, taxifolin, morin, chlorogenic acid, ferulic acid, p-coumaric acid, and gallic acid). The stock compounds were prepared in ethanol (30%), and adequate ethanol concentrations were used as the negative control in the assays. Experiments were done in triplicate.

[1] = test system: P. aeruginosa IBRS P001 biofilm; assay: Crystal violet antibiofilm assay (biofilm formation); assay type: cell-based, Pseudomonas aeruginosa; conditions: MIC and sub-MIC, 24 h, crystal violet, Figure 1
Protocol: After incubation, each well was washed twice with sterile PBS (phosphate-buffered saline, pH 7.4) and fixed with methanol for 10 min. After removal of methanol the plate was air-dried. The biofilm was stained with 0.1% crystal violet (Bio-Merieux, Marcy l’Etoile, France) for 30 min. The plate was washed with water, air dried, and the stain was dissolved with 200 μL of 96% ethanol (Zorka, Sabac, Serbia). The absorbance was read at 620 nm on a Multiskan™ FC microplate photometer (Thermo Scientific™, Waltham, MA, USA). The results are presented as biofilm forming capacity (%) compared to control.

HaCaT cells = assay: Cytotoxicity in HaCaT cell line (crystal violet assay); assay type: cell-based, human; conditions: Homo sapiens; HaCaT, 24 h treatment, crystal violet; read-out: IC50 (compound concentration that inhibited 50% of the cell growth)
Protocol: For determination of the polyphenols’ cytotoxic effect, a crystal violet assay was used, with modifications. The cytotoxic effect of polyphenols was analyzed on spontaneously immortalized human skin keratinocytes (HaCaT, AddexBio No. T0020001, San Diego, CA, USA) cell lines. […] Cells (1 × 10^4 cells/well) were seeded in a 96-well plate (Sarstedt, Nümbrecht, Germany) 24 h before treatment. […] Cells were incubated with the compounds for 24 h. […] After crystal violet was removed, the plates were washed in a stream of tap water and left to air-dry at room temperature for 24 h. The absorbance was measured in a microplate reader (Multiskan™ FC Microplate Photometer, Thermo Scientific™) at 590 nm. The results were expressed as IC50 value in μg/mL. The criterion used to categorize the cytotoxic activity polyphenols was as follows: […] All analyses were performed in triplicate; each replicate was also quantified three times. Data were expressed as mean standard deviation, where applicable.

K. pneumoniae IT977 = assay: Antimicrobial microdilution assay (MIC/MBC); assay type: cell-based, Klebsiella pneumoniae; conditions: Klebsiella pneumoniae, IT977; for MIC: 37 °C, 24 h, read-out: MIC; for MBC: subcultivation, 24 h at 37 °C, read-out: MBC
Protocol: as §1

K. pneumoniae Ni9 = assay: Antimicrobial microdilution assay (MIC/MBC); assay type: cell-based, Klebsiella pneumoniae; conditions: Klebsiella pneumoniae, NI9; for MIC: 37 °C, 24 h, read-out: MIC; for MBC: subcultivation, 24 h at 37 °C, read-out: MBC
Protocol: as §1

P. aeruginosa IBRS P001 = assay: Antimicrobial microdilution assay (MIC/MBC); assay type: cell-based, Pseudomonas aeruginosa; conditions: Pseudomonas aeruginosa, IBRSP001; for MIC: 37 °C, 24 h, read-out: MIC; for MBC: subcultivation, 24 h at 37 °C, read-out: MBC
Protocol: as §1

P. aeruginosa MMA83 = assay: Antimicrobial microdilution assay (MIC/MBC); assay type: cell-based, Pseudomonas aeruginosa; conditions: for MIC: 37 °C, 24 h, read-out: MIC; for MBC: subcultivation, 24 h at 37 °C
Protocol: as §1

[2] = test system: Methicillin resistant S. aureus IBRS MRSA 011; assay: Antimicrobial microdilution assay (MIC/MBC); assay type: cell-based, Staphylococcus aureus
Protocol: as §1

A. baumannii S2/2 = assay: Antimicrobial microdilution assay (MIC/MBC); assay type: cell-based, Acinetobacter baumannii; conditions: Acinetobacter baumannii, S2/2; for MIC: 37 °C, 24 h, read-out: MIC; for MBC: subcultivation, 24 h at 37 °C, read-out: MBC
Protocol: as §1

A. baumannii 6077/12 = assay: Antimicrobial microdilution assay (MIC/MBC); assay type: cell-based, Acinetobacter baumannii; conditions: Acinetobacter baumannii, 6077/12; for MIC: 37 °C, 24 h, read-out: MIC; for MBC: subcultivation, 24 h at 37 °C, read-out: MBC
Protocol: as §1

A. xylosoxidans 37F = assay: Antimicrobial microdilution assay (MIC/MBC); assay type: cell-based, Achromobacter xylosoxidans; conditions: Achromobacter xylosoxidans, 37F; for MIC: 37 °C, 24 h, read-out: MIC; for MBC: subcultivation, 24 h at 37 °C, read-out: MBC
Protocol: as §1

E. coli IBRS E003 = assay: Antimicrobial microdilution assay (MIC/MBC); assay type: cell-based, Escherichia coli; conditions: Escherichia coli, IBRSE003; for MIC: 37 °C, 24 h, read-out: MIC; for MBC: subcultivation, 24 h at 37 °C, read-out: MBC
Protocol: as §1

E. coli IMD989 = assay: Antimicrobial microdilution assay (MIC/MBC); assay type: cell-based, Escherichia coli; conditions: Escherichia coli, IMD989; for MIC: 37 °C, 24 h, read-out: MIC; for MBC: subcultivation, 24 h at 37 °C, read-out: MBC
Protocol: as §1

[3] = Pseudomonas aeruginosa, MMA83, read-out: MBC
[4] = Staphylococcus aureus, MRSA, 37 °C, 24 h, read-out: MIC
[5] = Staphylococcus aureus, MRSA, subcultivation, 24 h at 37 °C, read-out: MBC
[6] = Staphylococcus aureus, MRSA, 24 h

Row | SMILES | MIC (S. infantis 1371/1) | MBC (S. infantis 1371/1) | MIC (K. pneumoniae IT977) | MBC (K. pneumoniae IT977) | MIC (K. pneumoniae Ni9) | MBC (K. pneumoniae Ni9) | MIC (P. aeruginosa IBRS P001) | MBC (P. aeruginosa IBRS P001) | MIC (P. aeruginosa MMA83; Pseudomonas aeruginosa, MMA83) | MBC (P. aeruginosa MMA83; [3]) | MIC (A. baumannii S2/2) | MBC (A. baumannii S2/2) | MIC (A. baumannii 6077/12) | MBC (A. baumannii 6077/12) | MIC (A. xylosoxidans 37F) | MBC (A. xylosoxidans 37F) | MIC (E. coli IBRS E003) | MBC (E. coli IBRS E003) | MIC (E. coli IMD989) | MBC (E. coli IMD989) | other results
1 | C[C@@H]1O[C@@H](O[C@H]2[C@H](Oc3cc(O)c4c(c3)O[C@H](c3ccc(O)cc3)CC4=O)O[C@H](CO)[C@@H](O)[C@@H]2O)[C@H](O)[C@H](O)[C@H]1O [Naringin, naringin] | > 1000 µg/mL | > 1000 µg/mL | > 1000 µg/mL | > 1000 µg/mL | > 1000 µg/mL | > 1000 µg/mL | 250 µg/mL (≈ 431 µM) | 500 µg/mL (≈ 861 µM) | > 1000 µg/mL | > 1000 µg/mL | > 1000 µg/mL | > 1000 µg/mL | > 1000 µg/mL | > 1000 µg/mL | > 1000 µg/mL | > 1000 µg/mL | > 1000 µg/mL | > 1000 µg/mL | > 1000 µg/mL | > 1000 µg/mL | Bactericidal concentration (P. aeruginosa MTCC 2488): 1.4 mg/mL; IC50 (P. aeruginosa MTCC 2488): 570 µg/mL (≈ 982 µM); reduction of biofilm formation (biomass), in words [1]: not significantly altered; IC50 (HaCaT cells): > 1000 µg/mL; MBC (P. aeruginosa MMA83): >1000 µg/mL; MIC [2, 4]: 500 µg/mL (≈ 861 µM); MBC [2, 5]: 1000 µg/mL (≈ 1720 µM)
2 | [H]/N=C(/N)N[C@H]1[C@H](O)[C@@H](O)[C@H](O[C@@H]2O[C@@H](C)[C@](O)(C=O)[C@H]2O[C@@H]2O[C@@H](CO)[C@H](O)[C@@H](O)[C@@H]2NC)[C@@H](N/C(N)=N\[H])[C@@H]1O [Streptomycin, reference compound] | > 1000 µg/mL | > 1000 µg/mL | > 1000 µg/mL | > 1000 µg/mL | > 1000 µg/mL | > 1000 µg/mL | 50 µg/mL (≈ 86 µM) | 100 µg/mL (≈ 172 µM) | > 1000 µg/mL | > 1000 µg/mL | > 1000 µg/mL | > 1000 µg/mL | > 1000 µg/mL | > 1000 µg/mL | > 1000 µg/mL | > 1000 µg/mL | 100 µg/mL (≈ 172 µM) | 200 µg/mL (≈ 344 µM) | 1000 µg/mL (≈ 1720 µM) | > 1000 µg/mL | MBC [2, 6]: 800 µg/mL (≈ 1380 µM); MIC [2, 6]: 100 µg/mL (≈ 172 µM)
3 | O=C1C[C@@H](c2ccc(O)cc2)Oc2cc(O)cc(O)c21 [Naringenin, naringenin] | > 1000 µg/mL | > 1000 µg/mL | 1000 µg/mL (≈ 3670 µM) | 1000 µg/mL (≈ 3670 µM) | 250 µg/mL (≈ 918 µM) | 500 µg/mL (≈ 1840 µM) | 250 µg/mL (≈ 918 µM) | 500 µg/mL (≈ 1840 µM) | 1000 µg/mL (≈ 3670 µM) | 1000 µg/mL (≈ 3670 µM) | 500 µg/mL (≈ 1840 µM) | 500 µg/mL (≈ 1840 µM) | 500 µg/mL (≈ 1840 µM) | 500 µg/mL (≈ 1840 µM) | 1000 µg/mL (≈ 3670 µM) | 1000 µg/mL (≈ 3670 µM) | 500 µg/mL (≈ 1840 µM) | 1000 µg/mL (≈ 3670 µM) | 1000 µg/mL (≈ 3670 µM) | > 1000 µg/mL | IC50 (HaCaT cells): 528 ± 47 µg/mL (≈ 1940 µM); MIC ([2]; 37 °C, 24 h): 250 µg/mL (≈ 918 µM); MIC [2, 4]: 250 µg/mL (≈ 918 µM); MBC [2, 5]: 500 µg/mL (≈ 1840 µM)
